# Assays:
# S. coag. Neg. 845 = experiment: In vitro antibacterial activity (MIC), broth dilution micromethod; assay type: cell-based, Staphylococcus spp.; details: erythromycin-resistant strain, MHB, 37° C., 18 hours
# Protocol: (§1) The minimum inhibitory concentrations (MIC), with respect to Gram-positive bacteria (erythromycin-sensitive and -resistant strains) and Gram-negative bacteria, were determined by means of the broth-scaler dilution micromethod in twin series [National Committee for Clinical Laboratory Standards, 1990; Methods for dilution antimicrobial susceptibility tests for bacteria that grow aerobically; Approved standards M7-A2-NCCLS, Villanova, Pa.], using Mueller Hinton Broth (MHB) as culture medium.
# (§2) Azithromycin [The Merck Index, XIIth Edition, No. 946) was used as reference macrolide.
# (§3) The MIC values, expressed in μg/ml, were determined after incubating the microplates at 37° C. for 18 hours, by evaluating the lowest concentration of antibiotic capable of inhibiting bacterial growth.
# S. specie 916 = experiment: as above; assay type: cell-based, Staphylococcus spp.; details: erythromycin-resistant (inducible) strain, MHB, 37° C., 18 hours
# Protocol: as §1, §2, §3
# S. epidermis 60 = experiment: as above; assay type: cell-based, Staphylococcus spp.; details: erythromycin-resistant (inducible) strain, MHB, 37° C., 18 hours
# Protocol: as §1, §2, §3
# S. haemolyticus 161 = experiment: as above; assay type: cell-based, Staphylococcus haemolyticus; details: erythromycin-resistant strain, MHB, 37° C., 18 hours
# Protocol: as §1, §2, §3
# S. aureus 929 = experiment: as above; assay type: cell-based, Staphylococcus aureus; details: erythromycin-resistant strain, MHB, 37° C., 18 hours
# Protocol: as §1, §2, §3
# S. aureus 77 = experiment: as above; assay type: cell-based, Staphylococcus aureus; details: erythromycin-resistant strain, MHB, 37° C., 18 hours
# Protocol: as §1, §2, §3
# S. pneumoniae 1051 = experiment: as above; assay type: cell-based, Streptococcus pneumoniae; details: erythromycin-resistant strain, MHB with 5% horse serum, 37° C., 18 hours
# Protocol: as §1
# (§4) In the case of Streptococcus pneumoniae, the medium was supplemented with 5% horse serum.
# as §2, §3
# S. pneumoniae 1035 = experiment: as above; assay type: cell-based, Streptococcus pneumoniae; details: erythromycin-resistant strain, MHB with 5% horse serum, 37° C., 18 hours
# Protocol: as §1, §4, §2, §3
# S. pneumoniae 1047 = experiment: as above; assay type: cell-based, Streptococcus pneumoniae; details: erythromycin-resistant strain, MHB with 5% horse serum, 37° C., 18 hours
# Protocol: as §1, §4, §2, §3
# [1] = test system: Streptococcus pyogenes C203; experiment: In vivo therapeutic efficacy in experimental pulmonary infection in mice; details: CD1 mice, death observed for 7 days, probit analysis; for PD50 1 hour after infection: single oral dose 1 hour after intranasal infection; for PD50 24 hours before infection: single oral dose 24 hours before intranasal infection
# Protocol: The therapeutic efficacy, expressed as the 50% protective dose (PD50), of the compounds of formula (I) was evaluated in the experimental pulmonary infection induced in mice by Streptococcus pyogenes C203.
# Charles River albino mice (strain CD1) weighing 23-25 g were used, kept in groups of 6 to a cage and fed normally with a standard diet and water ad libitum.
# A suspension of Streptococcus pyogenes C203 (equal to about 10^8 CFU) in tryptone broth (0.05 ml) was administered intranasally to each mouse, anaesthetized with a mixture of ethyl ether and chloroform.
# The compounds of formula I and the clarithromycin reference compounds were administered orally in a single dose, as a 0.5% suspension Methocel® 1 hour after the infection and 24 hours before the infection.
# Observation of the death of the mice was continued for 7 days after the infection.
# The PD50, expressed as μmol/kg, was calculated by means of probit analysis.
compound,measurement,setting,value
"CC[C@H]1OC(=O)[C@H](C)[C@@H](O[C@H]2C[C@@](C)(OC)[C@@H](O)[C@H](C)O2)[C@H](C)[C@@H](O[C@@H]2O[C@H](C)C[C@H](N(C)C)[C@H]2O)[C@](C)(O)C[C@@H](C)CN(C)[C@H](C)[C@@H](O)[C@]1(C)O [Azithromycin, reference compound]",MIC,S. coag. Neg. 845; Staphylococcus,> 64 µg/mL
same,MIC,"S. specie 916; Staphylococcus, 916",> 64 µg/mL
same,MIC,"S. epidermis 60; Staphylococcus, 60",> 64 µg/mL
same,MIC,"S. haemolyticus 161; Staphylococcus haemolyticus, 161",> 64 µg/mL
same,MIC,"S. aureus 929; Staphylococcus aureus, 929",> 64 µg/mL
same,MIC,"S. aureus 77; Staphylococcus aureus, 77",> 64 µg/mL
same,MIC,"S. pneumoniae 1051; Streptococcus pneumoniae, 1051",16 µg/mL
same,MIC,"S. pneumoniae 1035; Streptococcus pneumoniae, 1035",4 µg/mL
same,MIC,"S. pneumoniae 1047; Streptococcus pneumoniae, 1047",2 µg/mL
"CC[C@H]1OC(=O)[C@H](C)[C@@H](O[C@H]2C[C@@](C)(OC)[C@@H](O)[C@H](C)O2)[C@H](C)[C@@H](O[C@@H]2O[C@H](C)C[C@H](N(C)C)[C@H]2O)[C@](C)(OC)C[C@@H](C)C(=O)[C@H](C)[C@@H](O)[C@]1(C)O [Clarithromycin, reference compound]",PD50 1 hour after infection,[1],7.38 µmol/kg
same,PD50 24 hours before infection,[1],>85.6 µmol/kg
"CC[C@H]1OC(=O)[C@H](C)[C@@H](O[C@H]2C[C@@](C)(OC)[C@@H](O)[C@H](C)O2)[C@H](C)[C@@H](O[C@@H]2O[C@H](C)C[C@H](N(C)C)[C@H]2O)[C@](C)(O)C[C@@H](C)/C(=N\OCCNCCCCCCNCc2nc(-c3nccs3)cs2)[C@H](C)[C@@H](O)[C@]1(C)O [Compound 1, erythromycin A (E)-9-[O-[2-[6-[([2,4′]bithiazole-2′-ylmethyl)amino]hexylamino]ethyl]oxime]]",MIC S. coag. Neg. 845,S. coag. Neg. 845,>64 µg/mL
same,MIC S. specie 916*,S. specie 916,2 µg/mL
same,MIC S. epidermis 60*,S. epidermis 60,2 µg/mL
same,MIC S. haemolyticus 161,S. haemolyticus 161,>64 µg/mL
same,MIC S. aureus 929,S. aureus 929,>64 µg/mL
same,MIC S. aureus 77,S. aureus 77,>64 µg/mL
same,PD50 1 hour after infection,[1],22.9 µmol/kg
same,PD50 24 hours before infection,[1],15.5 µmol/kg
CC[C@H]1OC(=O)[C@H](C)[C@@H](O[C@H]2C[C@@](C)(OC)[C@@H](O)[C@H](C)O2)[C@H](C)[C@@H](O[C@@H]2O[C@H](C)C[C@H](N(C)C)[C@H]2O)[C@](C)(O)C[C@@H](C)/C(=N\OCCN(C)CCCCCCNCc2nc(-c3nccs3)cs2)[C@H](C)[C@@H](O)[C@]1(C)O [Compound 2],MIC S. coag. Neg. 845,S. coag. Neg. 845,>64 µg/mL
same,MIC S. specie 916*,S. specie 916,4 µg/mL
same,MIC S. epidermis 60*,S. epidermis 60,2 µg/mL
same,MIC S. haemolyticus 161,S. haemolyticus 161,>64 µg/mL
same,MIC S. aureus 929,S. aureus 929,>64 µg/mL
same,MIC S. aureus 77,S. aureus 77,>64 µg/mL
"CC[C@H]1OC(=O)[C@H](C)[C@@H](O[C@H]2C[C@@](C)(OC)[C@@H](O)[C@H](C)O2)[C@H](C)[C@@H](O[C@@H]2O[C@H](C)C[C@H](N(C)C)[C@H]2O)[C@](C)(O)C[C@@H](C)/C(=N\OCCNCCCCCCNCc2csc(-c3cccs3)n2)[C@H](C)[C@@H](O)[C@]1(C)O [Compound 4, Erythromycin A (E)-9-[O-[2-[6-[(2-thiophen-2-ylthiazol-4-ylmethyl)amino]hexylamino]ethyl]oxime]]",MIC S. coag. Neg. 845,S. coag. Neg. 845,16 µg/mL
same,MIC S. specie 916*,S. specie 916,8 µg/mL
same,MIC S. epidermis 60*,S. epidermis 60,0.5 µg/mL
same,MIC S. haemolyticus 161,S. haemolyticus 161,16 µg/mL
same,MIC S. aureus 929,S. aureus 929,16 µg/mL
same,MIC S. aureus 77,S. aureus 77,64 µg/mL
same,PD50 1 hour after infection,[1],11.4 µmol/kg
same,PD50 24 hours before infection,[1],14.3 µmol/kg
"CC[C@H]1OC(=O)[C@H](C)[C@@H](O[C@H]2C[C@@](C)(OC)[C@@H](O)[C@H](C)O2)[C@H](C)[C@@H](O[C@@H]2O[C@H](C)C[C@H](N(C)C)[C@H]2O)[C@](C)(O)C[C@@H](C)/C(=N\OCCNCCCCCCNCc2csc(-n3ccnc3)n2)[C@H](C)[C@@H](O)[C@]1(C)O [Compound 5, Erythromycin A (E)-9-[O-[2-[6-[(2-imidazol-1-ylthiazol-4-ylmethyl)amino]hexylamino]ethyl]oxime]]",MIC S. coag. Neg. 845,S. coag. Neg. 845,>64 µg/mL
same,MIC S. specie 916*,S. specie 916,4 µg/mL
same,MIC S. epidermis 60*,S. epidermis 60,1 µg/mL
same,MIC S. haemolyticus 161,S. haemolyticus 161,>64 µg/mL
same,MIC S. aureus 929,S. aureus 929,>64 µg/mL
same,MIC S. aureus 77,S. aureus 77,>64 µg/mL
same,MIC S. pneumoniae 1051,S. pneumoniae 1051,2 µg/mL
same,MIC S. pneumoniae 1035,S. pneumoniae 1035,4 µg/mL
same,MIC S. pneumoniae 1047,S. pneumoniae 1047,4 µg/mL
CC[C@H]1OC(=O)[C@H](C)[C@@H](O[C@H]2C[C@@](C)(OC)[C@@H](O)[C@H](C)O2)[C@H](C)[C@@H](O[C@@H]2O[C@H](C)C[C@H](N(C)C)[C@H]2O)[C@](C)(O)C[C@@H](C)/C(=N\OCCN(C)CCCCCCNCc2csc(-n3ccnc3)n2)[C@H](C)[C@@H](O)[C@]1(C)O [Compound 6],MIC S. coag. Neg. 845,S. coag. Neg. 845,>64 µg/mL
same,MIC S. specie 916*,S. specie 916,4 µg/mL
same,MIC S. epidermis 60*,S. epidermis 60,2 µg/mL
same,MIC S. haemolyticus 161,S. haemolyticus 161,>64 µg/mL
same,MIC S. aureus 929,S. aureus 929,>64 µg/mL
same,MIC S. aureus 77,S. aureus 77,>64 µg/mL
same,PD50 1 hour after infection,[1],10.1 µmol/kg
same,PD50 24 hours before infection,[1],16.0 µmol/kg
same,MIC S. pneumoniae 1051,S. pneumoniae 1051,0.25 µg/mL
same,MIC S. pneumoniae 1035,S. pneumoniae 1035,0.5 µg/mL
same,MIC S. pneumoniae 1047,S. pneumoniae 1047,1 µg/mL
"CC[C@H]1OC(=O)[C@H](C)[C@@H](O[C@H]2C[C@@](C)(OC)[C@@H](O)[C@H](C)O2)[C@H](C)[C@@H](O[C@@H]2O[C@H](C)C[C@H](N(C)C)[C@H]2O)[C@](C)(O)C[C@@H](C)/C(=N\OCCNCCCCCCNCc2csc(-n3cncn3)n2)[C@H](C)[C@@H](O)[C@]1(C)O [Compound 8, Erythromycin A (E)-9-[O-[2-[6-[(2-[1,2,4]triazol-1-ylthiazol-4-ylmethyl)amino]hexylamino]ethyl]oxime]]",MIC S. coag. Neg. 845,S. coag. Neg. 845,>64 µg/mL
same,MIC S. specie 916*,S. specie 916,8 µg/mL
same,MIC S. epidermis 60*,S. epidermis 60,2 µg/mL
same,MIC S. haemolyticus 161,S. haemolyticus 161,>64 µg/mL
same,MIC S. aureus 929,S. aureus 929,>64 µg/mL
same,MIC S. aureus 77,S. aureus 77,>64 µg/mL
same,MIC S. pneumoniae 1051,S. pneumoniae 1051,1 µg/mL
same,MIC S. pneumoniae 1035,S. pneumoniae 1035,4 µg/mL
same,MIC S. pneumoniae 1047,S. pneumoniae 1047,2 µg/mL
"CC[C@H]1OC(=O)[C@H](C)[C@@H](O[C@H]2C[C@@](C)(OC)[C@@H](O)[C@H](C)O2)[C@H](C)[C@@H](O[C@@H]2O[C@H](C)C[C@H](N(C)C)[C@H]2O)[C@](C)(O)C[C@@H](C)/C(=N\OCCNCCCCCCNCc2csc(-n3cccn3)n2)[C@H](C)[C@@H](O)[C@]1(C)O [Compound 10, Erythromycin A (E)-9-[O-[2-[6-[(2-pyrazol-1-ylthiazol-4-ylmethyl)amino]hexylamino]ethyl]oxime]]",MIC S. coag. Neg. 845,S. coag. Neg. 845,32 µg/mL
same,MIC S. specie 916*,S. specie 916,4 µg/mL
same,MIC S. epidermis 60*,S. epidermis 60,1 µg/mL
same,MIC S. haemolyticus 161,S. haemolyticus 161,64 µg/mL
same,MIC S. aureus 929,S. aureus 929,32 µg/mL
same,MIC S. aureus 77,S. aureus 77,>64 µg/mL
same,MIC S. pneumoniae 1051,S. pneumoniae 1051,0.25 µg/mL
same,MIC S. pneumoniae 1035,S. pneumoniae 1035,1 µg/mL
same,MIC S. pneumoniae 1047,S. pneumoniae 1047,0.5 µg/mL
"CC[C@H]1OC(=O)[C@H](C)[C@@H](O[C@H]2C[C@@](C)(OC)[C@@H](O)[C@H](C)O2)[C@H](C)[C@@H](O[C@@H]2O[C@H](C)C[C@H](N(C)C)[C@H]2O)[C@](C)(O)C[C@@H](C)/C(=N\OCCN(C)CCCCCCNCc2csc(-n3cccn3)n2)[C@H](C)[C@@H](O)[C@]1(C)O [Compound 11, Erythromycin A (E)-9-[O-[2-[methyl[6-[(2-pyrazol-1-ylthiazol-4-ylmethyl]amino]hexyl]amino]ethyl]oxime]]",MIC S. coag. Neg. 845,S. coag. Neg. 845,>64 µg/mL
same,MIC S. specie 916*,S. specie 916,8 µg/mL
same,MIC S. epidermis 60*,S. epidermis 60,2 µg/mL
same,MIC S. haemolyticus 161,S. haemolyticus 161,>64 µg/mL
same,MIC S. aureus 929,S. aureus 929,>64 µg/mL
same,MIC S. aureus 77,S. aureus 77,>64 µg/mL
same,PD50 1 hour after infection,[1],11.2 µmol/kg
same,PD50 24 hours before infection,[1],25.4 µmol/kg
same,MIC S. pneumoniae 1051,S. pneumoniae 1051,0.125 µg/mL
same,MIC S. pneumoniae 1035,S. pneumoniae 1035,0.0625 µg/mL
same,MIC S. pneumoniae 1047,S. pneumoniae 1047,0.5 µg/mL
"Erythromycin A (E)-9-[O-[2-[6-[(2-[1,2,3]thiadiazol-5-ylthiazol-4-ylmethyl]amino]hexylamino]ethyl]oxime] [Compound 3]",MIC S. coag. Neg. 845,S. coag. Neg. 845,64 µg/mL
same,MIC S. specie 916*,S. specie 916,0.5 µg/mL
same,MIC S. epidermis 60*,S. epidermis 60,1 µg/mL
same,MIC S. haemolyticus 161,S. haemolyticus 161,64 µg/mL
same,MIC S. aureus 929,S. aureus 929,64 µg/mL
same,MIC S. aureus 77,S. aureus 77,>64 µg/mL
same,PD50 1 hour after infection,[1],4.5 µmol/kg
same,PD50 24 hours before infection,[1],25.4 µmol/kg
